Results from US20230098403A1, “MAGNETIC RESONANCE IMAGING CONTRAST AGENT, PREPARATION METHOD AND USE THEREOF” (GUANGZHOU PINGLAN MEDICAL TECHNOLOGY CO., LTD., priority 2020, published 2023).

Experiments:
[1] = Excretion kinetics test, Mn^2+ in urine and bile by ICP-MS; type: in vivo, SD rats; conditions: tail vein 0.1 mmol/kg; for Bile: Mn^2+ excretion amount / Bile: cumulative Mn^2+ excretion amount / Bile: cumulative Mn^2+ excretion rate / Urine: Mn^2+ excretion amount / Urine: cumulative Mn^2+ excretion amount / Urine: cumulative Mn^2+ excretion rate: SD rats, n = 7
Procedure: Clean grade Sprague Dawley (SD) rats, 5 males and 3 females, weighing 250±50 g, were purchased from the Animal Experimental Center of North Sichuan Medical College, fasted for 12-16 h before the experiment and anesthetized by intraperitoneal injection of 3% sodium pentobarbital (40 mg/kg).
The rat tail was soaked in hot water at about 40° C. for about 1 minute, and it was wiped and sterilized by a cotton ball dipped in alcohol followed by fixing and stretching the tip of the tail with left thumb and middle finger, and flatting with the index finger. The tail vein was located at both sides of the tail and was light cyan in color. Air in an indwelling needle was removed with normal saline, and the indwelling needle was inserted into the vein at an angle of 15° to the vein. When blood was returned, the indwelling needle was pushed forward after insertion. Then the indwelling needle was fixed on the tail of the rat, and normal saline was injected at a rate of about 2 mL/h.
After sterilization, a longitudinal incision was made in the middle of the abdomen of rats below the xiphoid, by incising the skin, subcutaneous tissue, linea alba, and peritoneum layer by layer into the abdomen. A forcep was used for opening the left and right lobes of the liver, below which the duodenum and omentum were exposed. The transverse part of the duodenum was stretched with the forcep in the middle, and the pale yellow biliary tract was covered by the omentum and extended from the subhepatic portion to the duodenum. The biliary tract was bluntly dissected out, picked out with a glass pick, and a venous indwelling needle was inserted near the duodenum, fixed with a hemostatic clip, and bile was collected as a pre-dose sample.
A longitudinal incision was made at 0.5 cm above the urethral orifice of rats, and the skin was incised and the muscles were bluntly separated. After the bladder was filled to a certain extent, the bladder was lifted by the left hand with a tweezer, and the venous indwelling needle was held by the right hand and was obliquely inserted into the bladder toward the top, along the opening of ureter on the dorsal lateral side of the bladder, and the needle was removed to collect urine as a pre-dose sample.
After collecting pre-dose bile and urine samples, the drug was rapidly administered in the tail vein at a dose of 0.1 mmol/kg.
The hourly biliary excretion amount and hourly urinary excretion amount were collected after drug administration; the samples were weighed and frozen at −20° C.
[…] of the sample (bile and urine) was diluted to 6 to 10 ml with 1% HNO3 to make the concentrations of Mn^2+ in the range of 1 to 1000 ppb. The concentrations of Mn^2+ in the samples solution were numbered and detected. The Mn^2+ concentrations in the sample solutions were calculated according to the response intensity and standard curve.
Origin 9.0 was used for calculating data and drawing. The excretion amount during the period was obtained by multiplying the dilution ratio, measurement concentration and urine (bile) volume. The excretion amount during each period was compared with the dosage of administration to obtain the percentage of cumulative drug excretion amount during the corresponding time period.

[2] = In vivo imaging in rats (3.0 T MRI); conditions: SD rats, 0.2 mmol/kg tail vein
Procedure: 1. Sixteen SD rats were divided into a KBR0826 contrast agent group (experimental group) and a gadoteric acid meglumine (Gd-DOTA) contrast agent group (control group), with 8 rats in each group, fasted for 12 hours (drank water freely).
2. 3% sodium pentobarbital (60 to 70 mg/kg) was weighed for intraperitoneal anesthesia.
3. The dosage of KBR0826 was 0.2 mmol/kg. SD rats were imaged in vivo with a 3.0 T MRI imager. Contrast agents were injected into the tail vein. The signal intensities (SI) of the heart, liver, brain parenchyma, muscle, and abdominal aorta in rats were measured before and after injection, and signal to noise ratio (SNR) was calculated and time-signal intensity curve was drawn to evaluate the imaging effect of the contrast agents.

[3] = Relaxivity measurement (T1 and T2 relaxation, MRI Contrast Agent Analyzer); type: physicochemical; conditions: 0.5 T, 32° C., pH=7.4
Procedure: The method for measuring the relaxivity comprises the following steps: preparing contrast agent solutions in a gradient concentration (0.054, 0.109, 0.224, 0.451, 0.906 mM, in Hepes buffer, pH=7.4), and measuring the contrast agent samples at different concentrations by Niumag PQ001 MRI Contrast Agent Analyzer (0.5±0.08T, main frequency of instrument: 21.3 MHz; at 32° C.) to respectively obtain their T1 and T2 relaxation time, and then performing a linear fitting between the relaxation rate, Ri (Ri=1/Ti, i=1, 2) and the contrast agent concentrations to obtain a slope, i.e., relaxivity (ri, i=1, 2). Relaxivity reflects the ability of magnetic resonance imaging contrast agent to alter the relaxation time of water proton and is an important parameter to evaluate the quality of contrast agent. Relaxivity (ri, i=1, 2) is defined as the alteration in the relaxation rate of water proton (1/Ti, i=1, 2) by unit concentration of MRI Contrast agent (mmol/L).

Structure (SMILES): O=C([O-])CN(CP(=O)([O-])O)C1CCCCC1N(CC(=O)[O-])CP(=O)([O-])O.[Mn+2].[Na+].[Na+] (centres unmarked) [KBR0826]
- Bile: Mn^2+ excretion amount ([1]; sampling period 0-1 h): 0.0386 mg
- Bile: cumulative Mn^2+ excretion amount ([1]; sampling period 0-1 h): 0.0385 mg
- Bile: cumulative Mn^2+ excretion rate ([1]; sampling period 0-1 h): 2.81%
- Urine: Mn^2+ excretion amount ([1]; sampling period 0-1 h): 0.06995 mg
- Urine: cumulative Mn^2+ excretion amount ([1]; sampling period 0-1 h): 0.06995 mg
- Urine: cumulative Mn^2+ excretion rate ([1]; sampling period 0-1 h): 5.28%
- Bile: Mn^2+ excretion amount ([1]; sampling period 1-2 h): 0.0865 mg
- Bile: cumulative Mn^2+ excretion amount ([1]; sampling period 1-2 h): 0.1251 mg
- Bile: cumulative Mn^2+ excretion rate ([1]; sampling period 1-2 h): 9.31%
- Urine: Mn^2+ excretion amount ([1]; sampling period 1-2 h): 0.1582 mg
- Urine: cumulative Mn^2+ excretion amount ([1]; sampling period 1-2 h): 0.2281 mg
- Urine: cumulative Mn^2+ excretion rate ([1]; sampling period 1-2 h): 18.27%
- Bile: Mn^2+ excretion amount ([1]; sampling period 2-3 h): 0.0518 mg
- Bile: cumulative Mn^2+ excretion amount ([1]; sampling period 2-3 h): 0.1768 mg
- Bile: cumulative Mn^2+ excretion rate ([1]; sampling period 2-3 h): 13.17%
- Urine: Mn^2+ excretion amount ([1]; sampling period 2-3 h): 0.1094 mg
- Urine: cumulative Mn^2+ excretion amount ([1]; sampling period 2-3 h): 0.3375 mg
- Urine: cumulative Mn^2+ excretion rate ([1]; sampling period 2-3 h): 26.67%
- Bile: Mn^2+ excretion amount ([1]; sampling period 3-4 h): 0.0333 mg
- Bile: cumulative Mn^2+ excretion amount ([1]; sampling period 3-4 h): 0.2101 mg
- Bile: cumulative Mn^2+ excretion rate ([1]; sampling period 3-4 h): 15.69%
- Urine: Mn^2+ excretion amount ([1]; sampling period 3-4 h): 0.02084 mg
- Urine: cumulative Mn^2+ excretion amount ([1]; sampling period 3-4 h): 0.3399 mg
- Urine: cumulative Mn^2+ excretion rate ([1]; sampling period 3-4 h): 26.71%
- Bile: Mn^2+ excretion amount ([1]; sampling period 4-5 h): 0.043 mg
- Bile: cumulative Mn^2+ excretion amount ([1]; sampling period 4-5 h): 0.2627 mg
- Bile: cumulative Mn^2+ excretion rate ([1]; sampling period 4-5 h): 19.66%
- Urine: Mn^2+ excretion amount ([1]; sampling period 4-5 h): 0.01213 mg
- Urine: cumulative Mn^2+ excretion amount ([1]; sampling period 4-5 h): 0.3521 mg
- Urine: cumulative Mn^2+ excretion rate ([1]; sampling period 4-5 h): 27.59%
- Bile: Mn^2+ excretion amount ([1]; sampling period 5-6 h): 0.0318 mg
- Bile: cumulative Mn^2+ excretion amount ([1]; sampling period 5-6 h): 0.2945 mg
- Bile: cumulative Mn^2+ excretion rate ([1]; sampling period 5-6 h): 22.07%
- Urine: Mn^2+ excretion amount ([1]; sampling period 5-6 h): 0.00387 mg
- Urine: cumulative Mn^2+ excretion amount ([1]; sampling period 5-6 h): 0.3559 mg
- Urine: cumulative Mn^2+ excretion rate ([1]; sampling period 5-6 h): 27.88%
- Bile: Mn^2+ excretion amount ([1]; sampling period 6-7 h): 0.0265 mg
- Bile: cumulative Mn^2+ excretion amount ([1]; sampling period 6-7 h): 0.3209 mg
- Bile: cumulative Mn^2+ excretion rate ([1]; sampling period 6-7 h): 24.05%
- Urine: Mn^2+ excretion amount ([1]; sampling period 6-7 h): 0.00284 mg
- Urine: cumulative Mn^2+ excretion amount ([1]; sampling period 6-7 h): 0.3588 mg
- Urine: cumulative Mn^2+ excretion rate ([1]; sampling period 6-7 h): 28.09%
- Bile: Mn^2+ excretion amount ([1]; sampling period 7-8 h): 0.0219 mg
- Bile: cumulative Mn^2+ excretion amount ([1]; sampling period 7-8 h): 0.3429 mg
- Bile: cumulative Mn^2+ excretion rate ([1]; sampling period 7-8 h): 25.67%
- Urine: Mn^2+ excretion amount ([1]; sampling period 7-8 h): 0.0018 mg
- Urine: cumulative Mn^2+ excretion amount ([1]; sampling period 7-8 h): 0.3606 mg
- Urine: cumulative Mn^2+ excretion rate ([1]; sampling period 7-8 h): 28.22%
- Bile: Mn^2+ excretion amount ([1]; sampling period 8-9 h): 0.02 mg
- Bile: cumulative Mn^2+ excretion amount ([1]; sampling period 8-9 h): 0.3684 mg
- Bile: cumulative Mn^2+ excretion rate ([1]; sampling period 8-9 h): 27.03%
- Urine: Mn^2+ excretion amount ([1]; sampling period 8-9 h): 0.00083 mg
- Urine: cumulative Mn^2+ excretion amount ([1]; sampling period 8-9 h): 0.3614 mg
- Urine: cumulative Mn^2+ excretion rate ([1]; sampling period 8-9 h): 28.28%
- Bile: Mn^2+ excretion amount ([1]; sampling period 9-10 h): 0.0179 mg
- Bile: cumulative Mn^2+ excretion amount ([1]; sampling period 9-10 h): 0.3859 mg
- Bile: cumulative Mn^2+ excretion rate ([1]; sampling period 9-10 h): 29.97%
- Urine: Mn^2+ excretion amount ([1]; sampling period 9-10 h): 0.00061 mg
- Urine: cumulative Mn^2+ excretion amount ([1]; sampling period 9-10 h): 0.362 mg
- Urine: cumulative Mn^2+ excretion rate ([1]; sampling period 9-10 h): 28.33%
- excretion route ([1]; rats): mainly excreted through liver and kidney
- time course of excretion in urine and bile ([1]; rats): mainly in urine at the early stage and then in bile
- excreted in liver and kidney ([1]; rats, within 600 min): about 60%
- share of liver and kidney in excretion ([1]; rats, within 600 min): half and half
- excretion seen by imaging [2]: could be excreted through the kidneys and intestines
- liver enhancement [2]: obvious and continuous
- passage through the blood-brain barrier [2]: could not pass through the normal blood-brain barrier
- relaxivity r1 [3]: 3.12 mmol⁻¹ s⁻¹
